Measured values published in US8796268B2, “Heteroaryls and uses thereof” (Millennium Pharmaceuticals, Inc., priority 2010, dated 2014).
Like-named read-outs stand apart in the source and are kept apart here.

Assays:
Type in all cases: biochemical
Human PI3K gamma = target: T1, Human PI3K gamma (Homo sapiens, UniProt P48736); experiment: Human PI3K gamma enzyme assay (HTRF); details: for inhibition at 1 µM: read-out: p110 gamma Percent Inhibition
T1 construct: His (N); host or cells: SF9 insect cells (baculovirus)
In short: (§1)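 Compounds were mixed with 25 uM ATP, then with 3.5 uM di-C8 PI(4,5)P2 and His-tagged PI3K isoform (β 5.25 nM, δ 0.75 nM, γ 5 nM) at pH 7.00. After 30 min at room temperature, EDTA stopped the reaction and PIP3 was measured by HTRF over 1 h.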

Human PI3K delta = target: T2, Human PI3K delta (Homo sapiens, UniProt O00329); experiment: Human PI3K delta enzyme assay (HTRF); details: for inhibition at 1 µM: read-out: p110 delta Percent Inhibition
T2 construct: His (N); host or cells: SF9 insect cells (baculovirus)
In short: as §1

Human PI3K alpha = target: T3, Human PI3K alpha (Homo sapiens, UniProt P42336); experiment: Human PI3K alpha enzyme assay (HTRF); details: for inhibition at 1.1 µM: read-out: p110 alpha Percent Inhibition
T3 construct: His (N); host or cells: SF9 insect cells (baculovirus)

Human PI3K beta = target: T4, Human PI3K beta (Homo sapiens, UniProt P42338); experiment: Human PI3K beta enzyme assay (HTRF); details: for inhibition at 1.1 µM: read-out: p110 beta Percent Inhibition
T4 construct: His (N); host or cells: SF9 insect cells (baculovirus)
In short: as §1

[1] = concentration not given, b1389 states 1.0 μM for PI3K δ and γ
[2] = concentration not given, b1387 states 1.1 μM for PI3K α and β

T2 sequence (O00329 whole entry): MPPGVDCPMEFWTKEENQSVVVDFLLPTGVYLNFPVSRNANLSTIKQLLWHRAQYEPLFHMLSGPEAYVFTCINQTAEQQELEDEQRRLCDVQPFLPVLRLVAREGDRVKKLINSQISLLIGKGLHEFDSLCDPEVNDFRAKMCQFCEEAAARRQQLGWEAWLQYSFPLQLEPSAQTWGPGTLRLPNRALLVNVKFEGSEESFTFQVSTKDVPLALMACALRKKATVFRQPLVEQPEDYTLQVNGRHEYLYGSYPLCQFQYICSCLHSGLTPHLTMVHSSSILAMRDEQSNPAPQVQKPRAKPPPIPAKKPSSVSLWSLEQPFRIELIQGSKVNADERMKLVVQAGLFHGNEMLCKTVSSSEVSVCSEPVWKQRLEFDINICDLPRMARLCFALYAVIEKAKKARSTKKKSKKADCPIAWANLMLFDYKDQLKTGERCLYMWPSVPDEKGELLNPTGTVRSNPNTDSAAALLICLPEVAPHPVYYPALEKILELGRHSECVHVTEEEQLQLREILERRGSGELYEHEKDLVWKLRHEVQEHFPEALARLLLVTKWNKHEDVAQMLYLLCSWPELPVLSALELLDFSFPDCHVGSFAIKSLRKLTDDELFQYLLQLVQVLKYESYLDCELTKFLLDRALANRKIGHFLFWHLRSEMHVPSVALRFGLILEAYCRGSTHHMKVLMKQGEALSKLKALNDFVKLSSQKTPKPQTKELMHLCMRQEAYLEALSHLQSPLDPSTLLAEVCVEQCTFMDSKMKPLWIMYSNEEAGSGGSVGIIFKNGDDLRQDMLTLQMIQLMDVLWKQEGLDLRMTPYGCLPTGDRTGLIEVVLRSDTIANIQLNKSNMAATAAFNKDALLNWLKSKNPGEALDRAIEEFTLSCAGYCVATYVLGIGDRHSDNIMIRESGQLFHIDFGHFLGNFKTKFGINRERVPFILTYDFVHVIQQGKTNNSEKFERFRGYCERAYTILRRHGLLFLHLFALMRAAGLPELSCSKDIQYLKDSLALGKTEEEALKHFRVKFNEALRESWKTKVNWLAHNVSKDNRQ
T2 sequence (P27986 whole entry partner): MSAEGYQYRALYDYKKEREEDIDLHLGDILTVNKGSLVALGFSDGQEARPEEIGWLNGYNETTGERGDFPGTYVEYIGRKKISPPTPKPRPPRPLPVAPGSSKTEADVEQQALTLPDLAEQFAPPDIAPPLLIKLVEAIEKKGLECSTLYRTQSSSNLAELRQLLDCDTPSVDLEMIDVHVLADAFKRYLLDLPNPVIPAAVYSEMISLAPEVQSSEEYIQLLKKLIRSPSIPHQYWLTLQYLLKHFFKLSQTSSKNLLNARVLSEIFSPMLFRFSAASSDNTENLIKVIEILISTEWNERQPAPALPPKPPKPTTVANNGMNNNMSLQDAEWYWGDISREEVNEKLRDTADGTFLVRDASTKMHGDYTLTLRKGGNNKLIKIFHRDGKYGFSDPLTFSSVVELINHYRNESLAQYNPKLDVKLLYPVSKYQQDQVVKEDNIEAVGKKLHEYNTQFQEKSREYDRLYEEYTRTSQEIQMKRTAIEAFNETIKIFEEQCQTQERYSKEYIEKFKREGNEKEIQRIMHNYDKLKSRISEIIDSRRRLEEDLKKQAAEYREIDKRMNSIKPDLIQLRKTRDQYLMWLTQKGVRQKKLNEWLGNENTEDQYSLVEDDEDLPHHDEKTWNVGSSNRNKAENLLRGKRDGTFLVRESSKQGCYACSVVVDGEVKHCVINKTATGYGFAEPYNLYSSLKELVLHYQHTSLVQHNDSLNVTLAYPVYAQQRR
T4 sequence (P42338 whole entry): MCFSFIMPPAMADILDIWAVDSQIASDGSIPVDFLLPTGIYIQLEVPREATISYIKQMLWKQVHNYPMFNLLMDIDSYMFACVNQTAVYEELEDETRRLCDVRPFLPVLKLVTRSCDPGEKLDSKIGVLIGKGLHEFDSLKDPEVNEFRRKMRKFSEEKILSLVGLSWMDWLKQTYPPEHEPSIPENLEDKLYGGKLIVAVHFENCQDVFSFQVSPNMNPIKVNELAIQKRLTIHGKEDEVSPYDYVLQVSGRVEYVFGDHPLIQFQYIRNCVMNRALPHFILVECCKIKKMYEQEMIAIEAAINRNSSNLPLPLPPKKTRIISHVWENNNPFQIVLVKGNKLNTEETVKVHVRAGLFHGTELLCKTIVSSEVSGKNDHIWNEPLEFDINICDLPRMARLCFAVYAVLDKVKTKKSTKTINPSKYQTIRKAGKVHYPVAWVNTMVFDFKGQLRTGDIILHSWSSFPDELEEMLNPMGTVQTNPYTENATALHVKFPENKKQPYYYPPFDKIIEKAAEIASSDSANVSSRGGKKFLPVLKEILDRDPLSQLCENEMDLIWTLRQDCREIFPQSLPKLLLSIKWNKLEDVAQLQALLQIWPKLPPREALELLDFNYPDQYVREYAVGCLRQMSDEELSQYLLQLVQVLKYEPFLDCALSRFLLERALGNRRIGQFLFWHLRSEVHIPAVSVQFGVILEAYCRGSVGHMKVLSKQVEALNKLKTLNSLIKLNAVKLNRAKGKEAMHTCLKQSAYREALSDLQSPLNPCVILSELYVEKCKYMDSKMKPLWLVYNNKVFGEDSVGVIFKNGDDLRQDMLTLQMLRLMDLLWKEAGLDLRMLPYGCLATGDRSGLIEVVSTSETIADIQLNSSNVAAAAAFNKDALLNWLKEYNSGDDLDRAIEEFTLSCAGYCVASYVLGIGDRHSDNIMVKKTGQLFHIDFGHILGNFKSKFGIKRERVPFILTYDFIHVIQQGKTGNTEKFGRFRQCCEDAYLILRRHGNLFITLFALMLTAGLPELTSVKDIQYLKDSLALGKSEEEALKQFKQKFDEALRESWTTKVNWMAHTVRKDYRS
T4 sequence (P27986 whole entry partner): as the sequence (P27986 whole entry partner) above
T1 sequence (P48736 whole entry): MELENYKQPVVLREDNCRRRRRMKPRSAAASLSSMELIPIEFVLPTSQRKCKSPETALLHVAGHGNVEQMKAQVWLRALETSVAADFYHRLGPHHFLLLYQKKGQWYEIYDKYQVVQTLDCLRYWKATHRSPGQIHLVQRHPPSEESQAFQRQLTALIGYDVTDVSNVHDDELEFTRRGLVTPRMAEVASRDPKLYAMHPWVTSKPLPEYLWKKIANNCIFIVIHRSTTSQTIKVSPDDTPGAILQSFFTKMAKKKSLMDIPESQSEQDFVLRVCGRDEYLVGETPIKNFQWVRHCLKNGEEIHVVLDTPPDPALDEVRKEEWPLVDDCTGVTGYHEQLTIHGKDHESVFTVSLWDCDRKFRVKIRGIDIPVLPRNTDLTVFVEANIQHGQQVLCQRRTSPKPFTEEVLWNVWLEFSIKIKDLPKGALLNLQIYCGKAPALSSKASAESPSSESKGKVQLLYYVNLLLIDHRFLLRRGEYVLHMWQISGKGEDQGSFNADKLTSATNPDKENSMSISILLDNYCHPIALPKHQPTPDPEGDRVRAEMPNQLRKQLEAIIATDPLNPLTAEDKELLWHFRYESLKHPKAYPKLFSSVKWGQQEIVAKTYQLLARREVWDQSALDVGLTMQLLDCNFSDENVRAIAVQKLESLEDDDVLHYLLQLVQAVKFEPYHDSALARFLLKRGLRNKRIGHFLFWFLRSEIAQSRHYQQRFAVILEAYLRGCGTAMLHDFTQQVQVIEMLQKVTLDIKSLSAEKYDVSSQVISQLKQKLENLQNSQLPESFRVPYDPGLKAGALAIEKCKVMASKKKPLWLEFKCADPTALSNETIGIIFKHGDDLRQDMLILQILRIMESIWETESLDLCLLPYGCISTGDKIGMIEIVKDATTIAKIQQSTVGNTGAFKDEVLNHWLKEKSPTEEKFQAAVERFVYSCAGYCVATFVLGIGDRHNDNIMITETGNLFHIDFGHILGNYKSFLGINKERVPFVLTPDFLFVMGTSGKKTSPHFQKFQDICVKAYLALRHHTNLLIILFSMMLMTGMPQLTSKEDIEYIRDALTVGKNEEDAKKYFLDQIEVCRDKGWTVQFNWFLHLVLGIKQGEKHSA
T3 sequence (P42336 whole entry): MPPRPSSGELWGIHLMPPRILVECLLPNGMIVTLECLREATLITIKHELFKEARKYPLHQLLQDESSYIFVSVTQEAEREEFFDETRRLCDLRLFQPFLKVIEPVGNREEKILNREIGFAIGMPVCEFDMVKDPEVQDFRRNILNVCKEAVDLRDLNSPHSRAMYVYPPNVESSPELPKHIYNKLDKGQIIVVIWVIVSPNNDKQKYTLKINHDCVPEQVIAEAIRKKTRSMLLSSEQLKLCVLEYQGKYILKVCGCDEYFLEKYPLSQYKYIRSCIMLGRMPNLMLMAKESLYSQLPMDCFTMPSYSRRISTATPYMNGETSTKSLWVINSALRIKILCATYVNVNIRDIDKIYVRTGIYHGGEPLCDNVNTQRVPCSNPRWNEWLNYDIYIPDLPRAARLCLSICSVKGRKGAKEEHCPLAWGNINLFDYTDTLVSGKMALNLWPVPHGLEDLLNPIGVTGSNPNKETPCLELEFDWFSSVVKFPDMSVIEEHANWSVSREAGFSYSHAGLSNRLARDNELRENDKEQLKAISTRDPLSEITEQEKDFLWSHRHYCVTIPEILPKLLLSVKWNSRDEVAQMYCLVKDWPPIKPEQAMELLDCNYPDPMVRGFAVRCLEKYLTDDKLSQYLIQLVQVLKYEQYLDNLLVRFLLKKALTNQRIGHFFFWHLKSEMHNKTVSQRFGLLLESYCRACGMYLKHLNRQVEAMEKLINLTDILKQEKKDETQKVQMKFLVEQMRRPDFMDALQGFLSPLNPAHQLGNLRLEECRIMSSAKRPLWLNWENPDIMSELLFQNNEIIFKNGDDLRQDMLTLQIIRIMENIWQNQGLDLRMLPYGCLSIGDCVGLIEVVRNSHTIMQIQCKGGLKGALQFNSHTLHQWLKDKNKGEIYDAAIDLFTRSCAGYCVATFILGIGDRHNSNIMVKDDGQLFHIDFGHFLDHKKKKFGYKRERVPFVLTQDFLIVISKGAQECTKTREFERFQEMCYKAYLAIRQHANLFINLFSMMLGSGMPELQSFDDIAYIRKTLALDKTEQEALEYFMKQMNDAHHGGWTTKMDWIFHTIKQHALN
T3 sequence (P27986 whole entry partner): as the sequence (P27986 whole entry partner) above

| SMILES | inhibition at 1 µM (Human PI3K gamma; [1]) [%] | inhibition at 1 µM (Human PI3K delta; [1]) [%] | inhibition at 1.1 µM (Human PI3K alpha; [2]) [%] | inhibition at 1.1 µM (Human PI3K beta; [2]) [%] | further results |
| --- | --- | --- | --- | --- | --- |
| O=C(O)c1sc(N2CCOCC2)nc1Cc1cc(F)c2ccccc2c1 [Compound 338] | 73 | 109 | 67 | 110 |  |
| O=C(O)c1sc(N2CCOCC2)nc1Cc1ccc2c(F)cccc2c1 [Compound 340] | 59 | 104 | 48 | 113 |  |
| O=C(O)c1sc(N2CCOCC2)nc1Cc1cc2ccccc2o1 [Compound 341] | 30 | 98 | 30 | 110 |  |
| O=C(O)c1sc(N2CCOCC2)nc1Cc1ccc2ccncc2c1 [Compound 344] | 59 | 102 | 24 | 103 |  |
| O=C(O)Cc1sc(N2CCOCC2)nc1Cc1ccc(Cl)c(Cl)c1 [Compound 348, 2-(4-(3,4-dichlorobenzyl)-2-morpholinothiazol-5-yl)acetic acid] | 4 | 56 | 4 | 63 |  |
| Clc1ccc(Cc2nc(N3CCOCC3)sc2Cc2nnn[nH]2)cc1Cl [Compound 350, 4-(5-((1H-tetrazol-5-yl)methyl)-4-(3,4-dichlorobenzyl)thiazol-2-yl)morpholine] | 3 | 41 | 6 | 58 |  |
| CS(=O)(=O)NC(=O)c1sc(N2CCOCC2)c(C#N)c1Cc1ccc(Cl)c(Cl)c1 [Compound 352, 4-cyano-3-(3,4-dichlorobenzyl)-N-(methylsulfonyl)-5-morpholinothiophene-2-carboxamide] | 14 | 84 | 18 | 85 |  |
| c1ccc2cc(Cc3cc(N4CCOCC4)sc3-c3nnn[nH]3)ccc2c1 [Compound 356] | 23 | 72 | 11 | 95 |  |
| N#Cc1c(N2CCOCC2)sc(C(=O)O)c1C(F)(F)c1ccc(Cl)cc1 [Compound 358] | 32 | 51 | 13 | 43 |  |
| N#Cc1c(N2CCOCC2)sc(C(=O)O)c1Cc1cc2ccc(Cl)cc2[nH]1 [Compound 359] | 64 | 102 | 90 | 109 |  |
| c1ccc2cc(Cc3nc(N4CCOCC4)sc3-c3nnn[nH]3)ccc2c1 [Compound 360, 4-[4-(2-naphthylmethyl)-5-(1H-tetrazol-5-yl)-1,3-thiazol-2-yl]morpholine] |  |  |  |  | p110 gamma Percent Inhibition (Human PI3K gamma; [1]): 49%; p110 delta Percent Inhibition (Human PI3K delta; [1]): 110%; p110 alpha Percent Inhibition (Human PI3K alpha; [2]): 30%; p110 beta Percent Inhibition (Human PI3K beta; [2]): 106% |
| CN(C)C(c1ccc(Cl)c(Cl)c1)c1c(C(=O)O)sc(N2CCOCC2)c1C#N (centres unmarked) [Compound 362, 4-cyano-3-[(3,4-dichlorophenyl)(dimethylamino)methyl]-5-(morpholin-4-yl)thiophene-2-carboxylic acid] |  |  |  |  | p110 gamma Percent Inhibition (Human PI3K gamma; [1]): 44%; p110 delta Percent Inhibition (Human PI3K delta; [1]): 104%; p110 alpha Percent Inhibition (Human PI3K alpha; [2]): 80%; p110 beta Percent Inhibition (Human PI3K beta; [2]): 116% |
| N#Cc1c(N2CCOCC2)sc(C(=O)O)c1C(CCO)c1ccc2ccccc2c1 (centres unmarked) [Compound 363] |  |  |  |  | p110 gamma Percent Inhibition (Human PI3K gamma; [1]): 65%; p110 delta Percent Inhibition (Human PI3K delta; [1]): 106%; p110 alpha Percent Inhibition (Human PI3K alpha; [2]): 99%; p110 beta Percent Inhibition (Human PI3K beta; [2]): 113% |
| N#Cc1c(N2CCOCC2)sc(C(=O)O)c1C(F)c1ccc2ccccc2c1 (centres unmarked) [Compound 364] |  |  |  |  | p110 gamma Percent Inhibition (Human PI3K gamma; [1]): 56%; p110 delta Percent Inhibition (Human PI3K delta; [1]): 101%; p110 alpha Percent Inhibition (Human PI3K alpha; [2]): 88%; p110 beta Percent Inhibition (Human PI3K beta; [2]): 109% |
| N#Cc1c(N2CCOCC2)sc(C(=O)O)c1C(CCF)c1ccc2ccccc2c1 (centres unmarked) [Compound 365] |  |  |  |  | p110 gamma Percent Inhibition (Human PI3K gamma; [1]): 63%; p110 delta Percent Inhibition (Human PI3K delta; [1]): 112%; p110 alpha Percent Inhibition (Human PI3K alpha; [2]): 105%; p110 beta Percent Inhibition (Human PI3K beta; [2]): 117% |
| CC(c1ccc(Cl)c(Cl)c1)c1c(C(=O)O)sc(N2CCOCC2)c1C#N (centres unmarked) [Compound 366] |  |  |  |  | p110 gamma Percent Inhibition (Human PI3K gamma; [1]): 77%; p110 delta Percent Inhibition (Human PI3K delta; [1]): 113%; p110 alpha Percent Inhibition (Human PI3K alpha; [2]): 66%; p110 beta Percent Inhibition (Human PI3K beta; [2]): 113% |
| CC(c1ccc2ccccc2c1)c1c(C(=O)O)sc(N2CCOCC2)c1C#N (centres unmarked) [Compound 367, 4-cyano-5-(morpholin-4-yl)-3-[1-(2-naphthyl)ethyl]thiophene-2-carboxylic acid] |  |  |  |  | inhibition at 1 µM (Human PI3K gamma): 72%; inhibition at 1 µM (Human PI3K delta): 116%; inhibition at 1.1 µM (Human PI3K alpha): 99%; inhibition at 1.1 µM (Human PI3K beta): 110% |
| CC(c1ccc2cc(F)ccc2c1)c1c(C(=O)O)sc(N2CCOCC2)c1C#N (centres unmarked) [Compound 369] |  |  |  |  | p110 gamma Percent Inhibition (Human PI3K gamma; [1]): 65%; p110 delta Percent Inhibition (Human PI3K delta; [1]): 109%; p110 alpha Percent Inhibition (Human PI3K alpha; [2]): 109%; p110 beta Percent Inhibition (Human PI3K beta; [2]): 115% |
| O=C(O)c1[se]c(N2CCOCC2)nc1Cc1ccc(Cl)cc1 [Compound 370, 4-(4-chlorobenzyl)-2-morpholino-1,3-selenazole-5-carboxylic acid] |  |  |  |  | inhibition at 1 µM (Human PI3K gamma): 12%; inhibition at 1 µM (Human PI3K delta): 62%; inhibition at 1.1 µM (Human PI3K alpha): 22%; inhibition at 1.1 µM (Human PI3K beta): 98% |

Continued, in another order:

| inhibition at 1 µM (Human PI3K gamma; [1]) [%] | inhibition at 1 µM (Human PI3K delta; [1]) [%] | inhibition at 1.1 µM (Human PI3K alpha; [2]) [%] | inhibition at 1.1 µM (Human PI3K beta; [2]) [%] | SMILES | further results |
| --- | --- | --- | --- | --- | --- |
| 12 | 97 | 34 | 80 | CC(C)(C)[S+]([O-])NC(c1ccc(Cl)c(Cl)c1)c1c(C(=O)O)sc(N2CCOCC2)c1C#N (centres unmarked) [Compound 342] |  |
| 23 | 98 | 21 | 98 | CC(c1ccc2ccccc2c1)c1nc(N2CCOCC2)sc1C(=O)O (centres unmarked) [Compound 346] |  |
| 60 | 111 | 71 | 102 | N#Cc1c(N2CCOCC2)sc(C(=O)O)c1C(CCO)c1ccc(Cl)c(Cl)c1 (centres unmarked) [Compound 347, 4-cyano-3-[1-(3,4-dichlorophenyl)-3-hydroxypropyl]-5-(morpholin-4-yl)thiophene-2-carboxylic acid] |  |
| 46 | 79 | 15 | 82 | CN(C)C(c1ccc(Cl)cc1)c1c(C(=O)O)sc(N2CCOCC2)c1C#N (centres unmarked) [Compound 351] |  |
| 15 | 80 | 19 | 87 | CC(=O)NC(c1ccc(Cl)cc1)c1c(C(=O)O)sc(N2CCOCC2)c1C#N (centres unmarked) [Compound 353] |  |
| 40 | 99 | 89 | 111 | COC(=O)NC(c1ccc2ccccc2c1)c1c(C(=O)O)sc(N2CCOCC2)c1C#N (centres unmarked) [Compound 354] |  |
| 53 | 105 | 44 | 100 | C=CCC(c1ccc(Cl)c(Cl)c1)c1c(C(=O)O)sc(N2CCOCC2)c1C#N (centres unmarked) [Compound 355, 4-cyano-3-[1-(3,4-dichlorophenyl)but-3-en-1-yl]-5-(morpholin-4-yl)thiophene-2-carboxylic acid] |  |
| 79 | 110 | 89 | 110 | N#Cc1c(N2CCOCC2)sc(C(=O)O)c1C(N)c1ccc2ccccc2c1 (centres unmarked) [Compound 357] |  |
| 60 | 111 | 104 | 115 | COc1ccc2ccc(Cc3c(C(=O)O)sc(N4CCOCC4)c3C#N)cc2c1 [Compound 361] |  |
| 87 |  | 89 | 112 | COC(c1ccc2ccccc2c1)c1c(C(=O)O)sc(N2CCOCC2)c1C#N (centres unmarked) [Compound 368, 4-cyano-3-[methoxy(2-naphthyl)methyl]-5-(morpholin-4-yl)thiophene-2-carboxylic acid] | p110 delta Percent Inhibition (Human PI3K delta; [1]): 113% |
